Measured values: patent publication US8431748B2, “Low protonation constant hydroxy acids” (BWE I Malmo AB, priority 2006, dated 2013)

Assays:
[1] = pKa determination by titration with aqueous potassium hydroxide
Description: The pKa value was taken as the pH at ½-equivalent volume of potassium hydroxide and corrected against a standard curve prepared from measurements on maleic acid, succinic acid, methacrylic acid, propanoic acid and pentanoic acid.

[2] = Effect of hydrogen peroxide oxidation of thioether sulphur on pKa; assay type: physicochemical; conditions: 0.82-2.17 eq. H2O2 (30%), after 2 days at room temperature, average pKa of oxidation products
Procedure: Five aqueous (35 ml) solutions of GALA (approx 2 mmol) was prepared) and varying amounts of hydrogen peroxide (0.82-2.17 eq., 30%) added. The average pKa value of the oxidation products was assessed after 2 days at room temperature, and the relation between pKa and mol ratio H2O2/S can be seen in FIG. 1.

[3] = Solubility of the product in solvents; assay type: physicochemical
[4] = in water, pH at 1/2-equivalent volume of 0.1 M KOH, corrected against a standard curve

SMILES	pKa ([1]; water)	solubility in hexane [3]	solubility in methanol [3]	pKa [1, 4]	other results
CC(SCCCOCC(O)CO)C(=O)O (stereo not drawn) [GALA, Glycerol Monoallyl Ether-Thiolactic Acid Adduct]	–	not soluble	soluble	3.67	reduction of pKa value by addition of hydrogen peroxide [2]: approximately 1 unit; solubility in ethanol/toluene (1/4) ([3]; ethanol/toluene (1/4)): soluble; solubility in water ([3]; water): soluble
O=C(O)CSCCCOCC(O)CO (stereo not drawn) [GAMA, Glycerol 1-Monoallyl Ether-Mercaptoacetic Acid]	–	–	–	3.60	–
CCC(CO)(CO)COCCCSC(C)C(=O)O (stereo not drawn) [TELA, Trimethyolpropane Monoallyl Ether-Thiolactic Acid Adduct]	–	not soluble	soluble	–	solubility in toluene ([3]; toluene): soluble

The next lines start with results.

pKa ([1]; water)	SMILES	solubility in hexane [3]	solubility in methanol [3]	pKa [1, 4]	other results
4.55	CCC(CO)(CO)C(=O)O [DMBA, 2,2-bis-(hydroxymethyl)butanoic acid, reference compound]	–	–	–	–
4.64	CC(CO)(CO)C(=O)O [DMPA, 2,2-bis-(hydroxymethyl)propanoic acid, reference compound]	–	–	–	–
